Values quoted from earlier work in patent US11723908B2, “Quinazoline derivatives as antitumor agents” (SUZHOU ZANRONG PHARMA LIMITED, priority 2018, dated 2023).

What was measured:
[1] = literature values; cited from earlier work
Pgp = conditions: literature statement; cited from earlier work

Structure (SMILES)	brain to blood ratio (Kp) [1]	Pgp substrate status (Pgp)
Cc1cc(Nc2ncnc3ccc(NC4=NC(C)(C)CO4)cc23)ccc1Oc1ccn2ncnc2c1 [Tucatinib]	0.02-0.05	strong Pgp substrate
CN(C)C/C=C/C(=O)Nc1cc2c(Nc3ccc(F)c(Cl)c3)ncnc2cc1O[C@H]1CCOC1 [afatinib]	< 0.08	strong Pgp substrates
CS(=O)(=O)CCNCc1ccc(-c2ccc3ncnc(Nc4ccc(OCc5cccc(F)c5)c(Cl)c4)c3c2)o1 [lapatinib]	0.04	strong Pgp substrates
CCOc1cc2ncc(C#N)c(Nc3ccc(OCc4ccccn4)c(Cl)c3)c2cc1NC(=O)/C=C/CN(C)C [neratinib]	0.079	strong Pgp substrates
